From patent US9662318B2, “Bitopic muscarinic agonists and antagonists and methods of synthesis and use thereof” (BARRY UNIVERSITY, INC., priority 2012, dated 2017)
Read-outs that look alike come from different tables or passages of the source.

What was measured:
Format in all cases: binding
M1 muscarinic receptor [1] = biological target: T1, M1 muscarinic receptor (Homo sapiens, UniProt P11229); test: biochemical; details: competition with [^3H]QNB
T1 sequence (P11229 1-460): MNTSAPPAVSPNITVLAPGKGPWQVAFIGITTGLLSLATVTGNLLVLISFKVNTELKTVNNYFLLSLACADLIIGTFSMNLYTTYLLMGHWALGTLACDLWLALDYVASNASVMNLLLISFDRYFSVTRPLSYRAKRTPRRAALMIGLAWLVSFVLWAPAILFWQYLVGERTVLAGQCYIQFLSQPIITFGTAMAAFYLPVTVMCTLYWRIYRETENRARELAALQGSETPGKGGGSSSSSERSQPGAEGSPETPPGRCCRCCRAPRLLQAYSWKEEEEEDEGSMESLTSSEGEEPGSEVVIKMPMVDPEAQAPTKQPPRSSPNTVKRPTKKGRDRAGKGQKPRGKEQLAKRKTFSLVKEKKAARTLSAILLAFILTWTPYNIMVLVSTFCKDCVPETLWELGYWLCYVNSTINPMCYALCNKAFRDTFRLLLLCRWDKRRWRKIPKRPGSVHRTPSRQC

M3 muscarinic receptor [2] = biological target: T2, M3 muscarinic receptor (Homo sapiens, UniProt P20309); test: biochemical; details: competition with [^3H]QNB
T2 construct: host or cells: Chinese hamster ovary cells

M4 muscarinic receptor [3] = biological target: T3, M4 muscarinic receptor (Homo sapiens, UniProt P08173); test: Dissociation of [3H]acetylcholine (full time course kinetics); details: [3H]acetylcholine dissociation
T3 construct: host or cells: Chinese hamster ovary cells
T3 sequence (P08173 1-479): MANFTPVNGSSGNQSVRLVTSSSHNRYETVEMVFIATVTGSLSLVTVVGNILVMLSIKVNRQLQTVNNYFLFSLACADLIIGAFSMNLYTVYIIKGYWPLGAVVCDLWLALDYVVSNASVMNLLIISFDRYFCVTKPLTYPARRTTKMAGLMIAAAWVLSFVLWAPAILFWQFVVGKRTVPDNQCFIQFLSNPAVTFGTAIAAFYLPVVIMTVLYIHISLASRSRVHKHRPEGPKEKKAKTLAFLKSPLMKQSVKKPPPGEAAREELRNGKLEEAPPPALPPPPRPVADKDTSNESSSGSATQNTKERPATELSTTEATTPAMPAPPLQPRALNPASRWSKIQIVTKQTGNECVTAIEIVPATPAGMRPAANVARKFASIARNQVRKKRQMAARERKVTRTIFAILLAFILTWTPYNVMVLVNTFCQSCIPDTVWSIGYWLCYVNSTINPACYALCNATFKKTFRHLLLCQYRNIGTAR
Source text: (§1) To probe the ability of JB-D4 to allosterically modulate orthosteric ligand, its effect on the rate of orthosteric radioligand dissociation has been investigated. […] where y is the percentage of radioligand binding at time x of radioligand binding at time 0, koff1 and koff2 are rate dissociation constants and f2 is the percentage of sites with koff2 rate of dissociation. […] y is the percentage of radioligand binding at time x of radioligand binding at time 0, koff is rate dissociation constant and f is percentage of sites with koff rate of dissociation. Eq. 2 was fitted to the data from kinetic experiments. Data are means±SD from 3 independent experiments performed in quadruplicates.

M5 muscarinic receptor [4] = biological target: T4, M5 muscarinic receptor (Homo sapiens, UniProt P08912); test: as above; details: [3H]acetylcholine dissociation
T4 construct: host or cells: CHO (Chinese hamster ovary) cells, stably transfected
T4 sequence (P08912 1-532): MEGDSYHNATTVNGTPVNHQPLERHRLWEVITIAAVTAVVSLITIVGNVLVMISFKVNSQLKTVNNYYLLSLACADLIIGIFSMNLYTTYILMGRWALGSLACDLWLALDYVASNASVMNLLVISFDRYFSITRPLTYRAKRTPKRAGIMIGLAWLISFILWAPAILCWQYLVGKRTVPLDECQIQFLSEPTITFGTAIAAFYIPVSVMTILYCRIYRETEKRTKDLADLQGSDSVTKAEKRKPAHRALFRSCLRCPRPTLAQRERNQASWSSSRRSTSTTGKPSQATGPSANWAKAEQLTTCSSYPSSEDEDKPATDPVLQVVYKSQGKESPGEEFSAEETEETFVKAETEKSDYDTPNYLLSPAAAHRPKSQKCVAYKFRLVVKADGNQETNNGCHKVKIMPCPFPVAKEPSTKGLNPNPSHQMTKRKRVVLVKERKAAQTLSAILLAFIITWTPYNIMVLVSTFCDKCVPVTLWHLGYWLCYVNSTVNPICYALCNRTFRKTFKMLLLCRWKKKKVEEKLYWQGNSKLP
Source text: as §1

M1 muscarinic receptor [5] = biological target: T1, M1 muscarinic receptor; test: as above; details: [3H]acetylcholine dissociation
Source text: as §1

M4 muscarinic receptor [6] = biological target: T3, M4 muscarinic receptor; test: Dissociation of [3H]NMS (full time course kinetics); details: [^3H]NMS dissociation
Source text: (§2) To probe the ability of JB-D4 to allosterically modulate orthosteric ligand, its effect on the rate of orthosteric radioligand dissociation has been investigated. […] Eq. 1 was fitted to the data from kinetic experiments. Data are means±SD from 3 independent experiments performed in quadruplicates. Equations: y=(100-f2)*e^(-Koff1*X)+f2*e^(-Koff2*X) (Eq. 1) where y is the percentage of radioligand binding at time x of radioligand binding at time 0, koff1 and koff2 are rate dissociation constants and f2 is the percentage of sites with koff2 rate of dissociation. […]. 2)

M5 muscarinic receptor [7] = biological target: T4, M5 muscarinic receptor; test: as above; details: [^3H]NMS dissociation, +0.1 mM JB-D4, M5
Source text: as §2

M1 muscarinic receptor [8] = biological target: T1, M1 muscarinic receptor; test: as above; details: [^3H]NMS dissociation
Source text: as §2

M3 muscarinic receptor [9] = biological target: T2, M3 muscarinic receptor; test: as above; details: [^3H]NMS dissociation
Source text: as §2

T2 sequence (P20309 whole entry): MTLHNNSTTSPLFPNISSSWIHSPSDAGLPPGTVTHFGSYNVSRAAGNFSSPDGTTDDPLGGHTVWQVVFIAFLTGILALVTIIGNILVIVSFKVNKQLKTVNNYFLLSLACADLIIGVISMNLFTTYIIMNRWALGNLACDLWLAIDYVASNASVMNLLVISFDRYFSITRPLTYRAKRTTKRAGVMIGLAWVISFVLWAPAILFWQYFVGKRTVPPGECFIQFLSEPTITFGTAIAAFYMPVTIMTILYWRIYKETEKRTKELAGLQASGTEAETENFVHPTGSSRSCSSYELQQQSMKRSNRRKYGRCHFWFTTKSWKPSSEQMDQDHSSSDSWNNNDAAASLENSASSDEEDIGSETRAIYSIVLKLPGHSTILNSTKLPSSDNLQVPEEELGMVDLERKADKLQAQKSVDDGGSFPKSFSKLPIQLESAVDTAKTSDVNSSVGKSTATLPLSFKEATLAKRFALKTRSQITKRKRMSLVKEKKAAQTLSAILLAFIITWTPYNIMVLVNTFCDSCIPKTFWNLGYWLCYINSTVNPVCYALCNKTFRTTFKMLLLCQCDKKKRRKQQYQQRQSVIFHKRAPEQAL

Structure (SMILES): CCCCOc1ccc(C(=O)OCC[N+]2(C)CCCCC2)cc1.[I-] [JB-D4, 2-(N-piperidineethyl) p-butoxybenzoate N-methyl iodide]
- Ki (M1 muscarinic receptor [1]; M1): 1.04 µM
- IC50 (M1 muscarinic receptor [1]; M1, average of 3, read-out: avg IC50): 8.78 µM
- IC50 (M1 muscarinic receptor [1]; M1, experiment 1, read-out: IC50—1): 8.72 µM
- IC50 (M1 muscarinic receptor [1]; M1, experiment 2, read-out: IC50—2): 9.42 µM
- IC50 (M1 muscarinic receptor [1]; M1, experiment 3, read-out: IC50—3): 8.19 µM
- Ki (M3 muscarinic receptor [2]; M3): 4.34 µM
- IC50 (M3 muscarinic receptor [2]; M3, average of 3, read-out: avg IC50): 29.4 µM
- IC50 (M3 muscarinic receptor [2]; M3, experiment 1, read-out: IC50—1): 39.5 µM
- IC50 (M3 muscarinic receptor [2]; M3, experiment 2, read-out: IC50—2): 20.6 µM
- IC50 (M3 muscarinic receptor [2]; M3, experiment 3, read-out: IC50—3): 28.2 µM
- f (M4 muscarinic receptor [3]; +0.1 mM JB-D4, M4): 81 ± 4%
- koff (M4 muscarinic receptor [3]; +0.1 mM JB-D4, M4): 0.003 s⁻¹
- f (M4 muscarinic receptor [3]; +1 mM JB-D4, M4): 86 ± 3%
- koff (M4 muscarinic receptor [3]; +1 mM JB-D4, M4): 0.000817 s⁻¹
- f (M5 muscarinic receptor [4]; +0.1 mM JB-D4, M5): 81 ± 3%
- koff (M5 muscarinic receptor [4]; +0.1 mM JB-D4, M5, read-out: koff (converted)): 0.000633 s⁻¹
- f (M5 muscarinic receptor [4]; +1 mM JB-D4, M5): 81 ± 3%
- koff (M5 muscarinic receptor [4]; +1 mM JB-D4, M5): 0.00055 ± 8.3e-05 s⁻¹
- koff (M5 muscarinic receptor [4]; +1 mM JB-D4, M5, read-out: koff (converted)): 0.00055 s⁻¹
- f (M1 muscarinic receptor [5]; +0.1 mM JB-D4, M1): 90 ± 3%
- koff (M1 muscarinic receptor [5]; +0.1 mM JB-D4, M1): 0.00317 s⁻¹
- f (M1 muscarinic receptor [5]; +1 mM JB-D4, M1): 88 ± 3%
- koff (M1 muscarinic receptor [5]; +1 mM JB-D4, M1): 0.00183 s⁻¹
- koff1 (M4 muscarinic receptor [6]; +0.1 mM JB-D4, M4): 0.000106 ± 8.3e-06 s⁻¹
- koff1 (M4 muscarinic receptor [6]; +1 mM JB-D4, M4): 2.11e-05 ± 1.7e-06 s⁻¹
- koff1 (M5 muscarinic receptor [7]): 5e-05 ± 2.8e-06 s⁻¹
- koff1 (M1 muscarinic receptor [8]; +0.1 mM JB-D4, M1): 0.000253 ± 1.4e-05 s⁻¹
- koff2 (M1 muscarinic receptor [8]; +0.1 mM JB-D4, M1): 0.000319 ± 1.7e-05 s⁻¹
- f2 (M1 muscarinic receptor [8]; +0.1 mM JB-D4, M1, percentage of sites with koff2): 12 ± 1%
- koff1 (M1 muscarinic receptor [8]; +1 mM JB-D4, M1): 0.000169 ± 1.7e-05 s⁻¹
- koff1 (M3 muscarinic receptor [9]; +0.1 mM JB-D4, M3): 0.000114 ± 8.3e-06 s⁻¹
- koff1 (M3 muscarinic receptor [9]; +1 mM JB-D4, M3): 2.36e-05 ± 2.2e-06 s⁻¹
